From patent US20240034929A1, “SCINTILLATION MATERIALS AND METHODS” (Florida State University Research Foundation, Inc., priority 2022, published 2024)

Assay: Thermogravimetric analysis (thermal stability)
Assay type: physicochemical
Conditions: heated from room temperature to 700° C. at 5° C./min under argon flux
Excerpt: More detailed crystallographic results are provided in FIGS. 17a and 17b and the table in FIG. 7. The 0D structure at the molecular level was clearly observed in (TPA-P)2ZnBr4 with ZnBr4^2− tetrahedrons completely isolated and surrounded by TPA-P^+ cations. The zinc center adopted a typical tetra-coordinated geometry bonded to the bromide ions, with an average Zn—Br bond length of 2.41 Å and bond angle of 109.740 (see also the table in FIG. 8).
Thermal Stability Analysis: TGA studies were done using a TA instruments Q600 system. The sample was heated from room temperature to 700° C. at a 5° C./min rate under an argon flux of 100 ml/min.

CCC[n+]1ccc(-c2ccc(N(c3ccccc3)c3ccccc3)cc2)cc1.[Br-] [TPA-PBr, 4-(4-(diphenylamino)phenyl)-1-(Propyl)-pyrindin-lium bromide]
onset weight loss (thermogravimetric analysis): 211 °C
